Test results reported in US20080085882A1, “Compositions and Methods for Potentiation of Cancer Agents” (priority 2006, published 2008).
“Also recorded” adds a separate entry of the source.

How the values were obtained:
WT strain BY4741 = test: cisplatin/NSC combination treatments, fraction of colony forming cells; format: cell-based, yeast; details: 2 hours at 30° C. in water
Procedure: This enhancement of cisplatin sensitivity by NSC109268 was quantified. We also tested the chemically related compound NSC 109272. Cells of a logarithmic-phase culture of WT strain BY4741 were incubated for 2 hours at 30° C. in water containing the combinations of NSC109268 or NSC109272 and cisplatin shown in Table 2. The fraction of colony forming cells was determined on solid YPD medium.

[1] = system: cisplatin resistant ovarian cancer cells (2008/IC3); test: MTS cell survival, cisplatin plus NSC109268; format: cell-based, human
Procedure: (§1) Based on the cisplatin result in yeast, the inventors explored if a similar effect can be detected in human cells. […] Survival was determined in the presence or absence of compound NSC109268 using Cell Titer 96 Aqueous Cell Proliferation Assay kit from Promega, Madison, Wis. All cultures, unless specified otherwise, were maintained in growth medium composed of RPMI with 2 mM L-glutamine, 100 units/ml of Penicillin, and 100 μg/ml Streptomycin, supplemented with 10% fetal bovine serum under a humidified atmosphere of 95% air, 5% CO2 at 37° C. Briefly, cells were plated in 96-well tissue culture plates at 5-8×10^3 cells/well and allowed to attach overnight in growth medium. The following day, cells were rinsed twice in DMEM and further incubated in serum-free medium for 24 h. Cells were then treated with cisplatin [0-100 μM] in the presence of NSC109268 [0, 1, 2, 3 μM] for 48 h. Dose-response studies were initially done to determine appropriate dosages for the drugs and their vehicles. Negative controls involved the use of DMF, vehicle for cisplatin (˜0 μM) or DMSO, vehicle for NSC109268 (˜0 μM). […] MTS is taken up by live cells where it is reduced by the dehydrogenase enzymes and released back into the culture medium as a yellow formazan product. The amount of formazan product measured in terms of absorbances is directly proportional to the number of live cells in the cultures. Thus, absorbance readings at 490 nm were taken after 1 h and converted to cell numbers based on standard curves. Standard curves were done using cells maintained in RPMI in 96-well plates at the same time. Experiments were done in triplicate wells at least 4 times. Statistical analyses were done using ANOVA. […] Several series of studies were conducted using DMF (solvent control=0) and various concentrations of cisplatin in combination with (DMSO (solvent control=0), 1 μM NSC1092682 μM NSC109268, and 3 μM NSC109268. Survival was plotted in a logarithmic scale against cisplatin dose, with different symbols indicating the amount of added NSC109268 (see FIG. 1A insert), for the RWPE-1 normal prostate cell line (FIG. 1A), PC3 prostate cancer cells (FIG. 1B), cisplatin-sensitive ovarian cancer cells (2008) (FIG. 1C) and cisplatin-resistant ovarian cancer cells (2008/IC3) (FIG. 1D).

[2] = system: checkpoint activation (DNA-damage-induced interaction between two selected checkpoint proteins); test: two-hybrid assay-based yeast screen for agents that modify cell cycle checkpoint activation; details: in response to the topoisomerase I inhibitor camptothecin
Procedure: A two-hybrid assay-based yeast system was used to screen small-molecule compound libraries for agents that modify cell cycle checkpoint activation. Checkpoint activation is measured as the DNA-damaged-induced increased interaction between two selected checkpoint proteins.

wild-type yeast = test: sensitivity towards DNA damaging agents, survival of macrocolony forming cells, wild type; format: cell-based; parameters: key: +: increased resistance; −: decreased resistance; details: strain WT
Procedure: (§2) As another example, the drug streptonigrin was used as a double-strand break inducing drug. After treatment of logarithmically growing yeast cultures for 1 h at 30° C. in YPD medium (1% yeast extract, 2% peptone, 2% dextrose), lethality was measured by inability of colony formation on YPD agar plates. […] The used concentration of 50-100 μg/ml results in 80% survival after 1 h incubation.
(§3) In summary, the incubation of logarithmic phase cells of wild-type yeast and a double-strand break repair deficient derivative (rad51) (Amberg, D. C., D. J. Burke, and J. N. Strathern. 2005. Methods in Yeast Genetics: A Cold Spring Harbor Laboratory Course Manual, 2005 Edition. Cold Spring Harbor Laboratory Press, Cold Spring Harbor, N.Y.) with compound NSC109268 had the following effects on sensitivity towards DNA damaging agents, measured as survival of macrocolony forming cells (+increased resistance, −decreased resistance, ND not determined): Table 1 summarizes the effects of NSC109268 on senstivity towards DNA Damaging Agents in repair-proficient wild type and rad 51^− cells.

[3] = system: double-strand break repair deficient derivative (rad51) yeast; test: sensitivity towards DNA damaging agents, survival of macrocolony forming cells, rad51; format: cell-based; parameters: key: +: increased resistance; −: decreased resistance; details: strain rad51
Procedure: as §2, §3

yeast cultures [4] = test: lethality of logarithmically growing yeast cultures, colony formation on YPD agar; format: cell-based
Procedure: as §2
Curiously, the opposite effect was found for other agents such hydrogen peroxide (H2O2), an oxidative agent causing base damage and strand breaks.

[5] = system: PC3 prostate adenocarcinoma cells; test: MTS cell survival, cisplatin plus NSC109268; format: cell-based, human
Procedure: as §1

[6] = system: cisplatin sensitive ovarian cancer cells (2008); test: MTS cell survival, cisplatin plus NSC109268; format: cell-based, human; details: cisplatin 0-100 μM, NSC109268 0-3 μM, 48 h
Procedure: Based on the cisplatin result in yeast, the inventors explored if a similar effect can be detected in human cells. […] Survival was determined in the presence or absence of compound NSC109268 using Cell Titer 96 Aqueous Cell Proliferation Assay kit from Promega, Madison, Wis. All cultures, unless specified otherwise, were maintained in growth medium composed of RPMI with 2 mM L-glutamine, 100 units/ml of Penicillin, and 100 μg/ml Streptomycin, supplemented with 10% fetal bovine serum under a humidified atmosphere of 95% air, 5% CO2 at 37° C.
Briefly, cells were plated in 96-well tissue culture plates at 5-8×10^3 cells/well and allowed to attach overnight in growth medium. The following day, cells were rinsed twice in DMEM and further incubated in serum-free medium for 24 h. Cells were then treated with cisplatin [0-100 μM] in the presence of NSC109268 [0, 1, 2, 3 μM] for 48 h. […]
To determine the number of surviving cells, cells were incubated in 333 μg/ml MTS [3-(4,5-dimethylthiazol-2-yl)-5-(3-carboxymethoxyphenyl)-2-(4-sulfophenyl)-2H-tetrazolium], a tetrazolium salt, and 25 μM phenazine methosulfate (PMS), an electron coupling reagent. […] The amount of formazan product measured in terms of absorbances is directly proportional to the number of live cells in the cultures. Thus, absorbance readings at 490 nm were taken after 1 h and converted to cell numbers based on standard curves. […]

yeast cultures [7] = test: lethality of logarithmically growing yeast cultures, colony formation on YPD agar; format: cell-based; remark: listed apart in the source
[8] = cisplatin 0-100 μM, NSC109268 0-3 μM, 48 h
[9] = compared to cisplatin-sensitive cells (2008)

Molecule: N.N.[Cl][Pt][Cl] [Cisplatin, cis-Diammineplatinum (II) dichloride, reference compound]
- cell survival (fraction of colony forming cells) (WT strain BY4741; 33 μM Cisplatin alone): 71%
- cell survival (fraction of colony forming cells) (WT strain BY4741; 82.5 μM Cisplatin alone): 44.5%
- cell survival (fraction of colony forming cells) (WT strain BY4741; 165 μM Cisplatin alone): 21%
- survival ([1]; 5 μM of cisplatin without any added NSC109268, 48 h): 85%

Molecule: Copper, di-μ-chlorobis[1-[(1-piperidinyl-κN)methyl]-2-naphthalenolato-κO]di-(9CI) [NSC109268]
- effect on checkpoint activation [2]: interfere with checkpoint activation
- effect on sensitivity towards DNA damaging agent (wild-type yeast; Cisplatin): −
- effect on sensitivity towards DNA damaging agent (wild-type yeast; MNNG): +
- effect on sensitivity towards DNA damaging agent (wild-type yeast; Streptonigrin): +
- effect on sensitivity towards DNA damaging agent ([3]; Cisplatin): −
- effect on sensitivity towards DNA damaging agent ([3]; Ionizing radiation (137Cs)): +
- effect on sensitivity towards DNA damaging agent ([3]; Phleomycin): +
- survival (yeast cultures [4]; compound itself, 50-100 μg/ml, 1 h incubation): 80%
- effect on sensitivity to DNA damaging agent (yeast cultures [4]; hydrogen peroxide (H2O2), simultaneous exposure): sensitivity is enhanced
- effect on lethality of DNA damaging agent (yeast cultures [4]; streptonigrin, 1 h at 30° C. in YPD medium): protective effect
- toxicity of the compound itself (yeast cultures [4]; yeast, 1 h at 30° C. in YPD medium): moderate toxicity
- cell survival (fraction of colony forming cells) (WT strain BY4741; NSC109268 7.4 nM + 33 μM Cisplatin): 29%
- cell survival (fraction of colony forming cells) (WT strain BY4741; NSC109268 7.4 nM + 82.5 μM Cisplatin): 25.5%
- cell survival (fraction of colony forming cells) (WT strain BY4741; NSC109268 7.4 nM + 165 μM Cisplatin): 0.09%
- cell survival (fraction of colony forming cells) (WT strain BY4741; NSC109268 7.4 nM, 0 μM Cisplatin): 79.5%
- cell survival (fraction of colony forming cells) (WT strain BY4741; NSC109268 37 nM + 165 μM Cisplatin): <0.4%
- cell survival (fraction of colony forming cells) (WT strain BY4741; NSC109268 37 nM, 0 μM Cisplatin): 10%
- effect of combination with cisplatin on survival [5, 8]: synergistically enhanced; also recorded: increases cellular sensitivity to cisplatin
- toxicity of NSC109268 alone ([5]; range of concentrations that increases sensitivity to cisplatin): (virtually) non-toxic
- survival ([1]; 2 μM NSC109268 without any cisplatin, 48 h): 38%
- measured survival ([1]; 5 μM cisplatin/2 μM combination treatment, 48 h): 4.5%
- survival expected if the effects were independent ([1]; 5 μM cisplatin/2 μM combination treatment, 85% of 38%): 32%
- effect of combination with cisplatin on survival [1, 8]: synergistically enhanced
- enhancement effect on cisplatin [1, 9]: much more pronounced
- toxicity without added cisplatin [1, 9]: much more toxic
- effect of combination with cisplatin on survival [6]: synergistically enhanced
- effect on sensitivity to DNA damaging agent (yeast cultures [7]; alkylating agent (MMS)): does not seem to affect sensitivity
- effect on lethality of DNA damaging agent (yeast cultures [7]; ionizing radiation (137Cs γ-radiation)): less significantly
- effect on sensitivity to DNA damaging agent (yeast cultures [7]; phleomycin): does not seem to affect sensitivity
- effect on sensitivity to DNA damaging agent (yeast cultures [7]; ultraviolet radiation (UV-C)): does not seem to affect sensitivity

Molecule: Copper, di-μ-chlorobis[1-[(4-morpholinyl-κN4)methyl]-2-naphthalenolato-κO]di-(9CI) [NSC109272]
- cell survival (fraction of colony forming cells) (WT strain BY4741; NSC109272 1.5 nM + 165 μM Cisplatin): 4%
- cell survival (fraction of colony forming cells) (WT strain BY4741; NSC109272 1.5 nM, 0 μM Cisplatin): 70%
